Experimental data published in publication PMC12701685, “Support Vector Machine Identification of Small Molecule Binders to an Understudied Allosteric Site of SARS‐CoV‐2 Mpro for Next‐Generation PROTAC‐Based Therapeutics” (Archiv Der Pharmazie, 2025).
Where two headings read alike, the source gives them in different places.

Legend:
[1] = system: SARS‐CoV‐2 replication in Vero E6 cells; conditions: cited from earlier work
SARS‐CoV‐2 Mpro [2] = target: T1, SARS‐CoV‐2 Mpro (Severe acute respiratory syndrome coronavirus 2, UniProt P0DTD1); test: Microscale thermophoresis (MST) binding check and binding affinity; conditions: for RA (Response Amplitude): MST binding affinity experiment, RA ≥ 1.5 indicative of binding; for Kd: MST, labeled Mpro 35 nM, 16 1:1 serial dilutions, two independent experiments, read-out: K d ± K d confidence
SARS‐CoV‐2 Mpro [3] = target: T1, SARS‐CoV‐2 Mpro; test: FRET peptide substrate enzymatic assay; assay type: biochemical; conditions: compound 20 µM; for remaining activity at 20 µM: enzyme 75 nM, substrate 25 µM, read-out: Residual activity (%)
Protocol: The three compounds identified as binders in the MST assay were tested for their inhibitory properties against SARS‐CoV‐2 Mpro at a 20 µM concentration (see Section 4 for details).
Inhibitory activities of the compounds against SARS‐CoV‐2 Mpro were determined as described previously by cleavage of a fluorescence resonance energy transfer (FRET) peptide substrate (Dabcyl‐[…]‐Edans), purchased from Genescript (New Jersey, USA).
Fluorescence measurements were carried out in white flat‐bottom 96‐well plates (Greiner Bio‐One, Kremsmünster, Upper Austria) using a Tecan Spark 10M plate reader (Tecan Group Ltd., Männedorf, Switzerland). Each well contained a final volume of 200 µL, consisting of 180 µL assay buffer (20 mM TRIS‐HCl pH 7.5, 20 mM NaCl, 0.1 mM EDTA, 1 mM DTT), 5 µL enzyme solution (final concentration 75 nM), 10 µL inhibitor in DMSO (final concentration 20 µM) or pure DMSO as a negative control, and 5 µL substrate solution in DMSO (final concentration 25 µM). The reaction was monitored for 10 min at 25°C, with fluorescence readings taken at 30‐s intervals. The substrate was excited at 335 nm, and fluorescence emission was recorded at 493 nm. The remaining enzymatic activity was determined by comparing the substrate hydrolysis rate in reaction mixtures containing the inhibitors to that of the DMSO control. Only the first 5 min of the fluorescence curves (Supporting Information S1: Figure S3) were used for the calculation to obtain the linear part.

SARS‐CoV‐2 Mpro [4] = target: T1, SARS‐CoV‐2 Mpro; conditions: non‐covalent inhibitors; cited from earlier work
SARS-CoV-1 = conditions: cited from earlier work
[5] = system: virus‐infected VeroE6 cells; conditions: plaque reduction; cited from earlier work
[6] = system: virus‐infected VeroE6 cells; conditions: cytopathic effect (CPE) inhibition; cited from earlier work
infected cells = conditions: cited from earlier work

Structure (SMILES): O=C(NC1CCNCC1)c1n[nH]cc1NC(=O)c1c(Cl)cccc1Cl [AT7519, N‐(4‐piperidinyl)‐4‐(2,6‐dichlorobenzoylamino)‐1H‐ Pyrazole‐3‐Carboxamide]
- EC50 [1]: 25.2 µM

Structure (SMILES): Cc1ccc(C(=O)NCCCNC(=O)c2ccccn2)cc1C [compound 7]
- RA (Response Amplitude) (SARS‐CoV‐2 Mpro [2]): 3.4
- Kd (SARS‐CoV‐2 Mpro [2]): 2.8 ± 0.9 µM
- Effect on enzyme activity (in words) (SARS‐CoV‐2 Mpro [3]): no effect on the catalytic activity
- remaining activity at 20 µM (SARS‐CoV‐2 Mpro [3]): 105%

Structure (SMILES): CCOc1cccc(-c2nn3c(-c4cccnc4)nnc3s2)c1 [compound 8]
- RA (Response Amplitude) (SARS‐CoV‐2 Mpro [2]): 4.7
- Kd (SARS‐CoV‐2 Mpro [2]): 23.9 ± 7.4 µM
- Effect on enzyme activity (in words) (SARS‐CoV‐2 Mpro [3]): no effect on the catalytic activity
- remaining activity at 20 µM (SARS‐CoV‐2 Mpro [3]): 101%

Structure (SMILES): Cc1cc2ncn(S(=O)(=O)c3ccc(S(N)(=O)=O)cc3)c2cc1C [compound 9]
- RA (Response Amplitude) (SARS‐CoV‐2 Mpro [2]): 2.7
- Kd (SARS‐CoV‐2 Mpro [2]): 39 ± 23.4 µM
- Effect on enzyme activity (in words) (SARS‐CoV‐2 Mpro [3]): no effect on the catalytic activity
- remaining activity at 20 µM (SARS‐CoV‐2 Mpro [3]): 106%

Structure (SMILES): O=C(c1c[nH]c(=O)[nH]c1=O)N1CCN(c2ccc(Cl)c(Cl)c2)CC1 [compound 23]
- IC50 (SARS‐CoV‐2 Mpro [4]): 5.1 ± 0.63 µM

Structure (SMILES): CCC(C)(C)NC(=O)[C@@H](c1ccn(C)c1)N(C(=O)Cn1nnc2ccccc21)c1ccc(NC(C)=O)cc1 [compound 42]
- IC50 (SARS-CoV-1): 6.2 µM

Structure (SMILES): O=C(Cn1nnc2ccccc21)N(Cc1cccc(Cl)c1)c1ccc(-c2c[nH]cn2)cc1 [compound 47]
- EC50 [5]: 0.56 µM
- EC50 [6]: 0.5 µM

Structure (SMILES): O=C(NCc1cccs1)[C@@H]1CN(C(=O)c2cccnc2)CCN1c1ccc(Cl)c(Cl)c1 [compound 51]
- IC50 (SARS‐CoV‐2 Mpro [4]): ~0.4 µM
- EC50 (infected cells): ~1.1 µM
